Results: patent US20240424111A1, “Degrader Compounds and Uses Thereof” (CALICO LIFE SCIENCES LLC, priority 2021, published 2024)

Legend:
[1] = target: T1, PTPN2 (Homo sapiens, UniProt P17706); assay: HiBiT PTPN2 degradation in 293T.109 (HiBiT-PTPN2) cells, 24 hours; type: cell-based; details: 293T.109 cells
T1 construct: expressed in transfected cells; host or cells: 293T.109 (HiBiT-PTPN2), derived from 293T WT (ATCC)
T1 sequence (P17706 1-415): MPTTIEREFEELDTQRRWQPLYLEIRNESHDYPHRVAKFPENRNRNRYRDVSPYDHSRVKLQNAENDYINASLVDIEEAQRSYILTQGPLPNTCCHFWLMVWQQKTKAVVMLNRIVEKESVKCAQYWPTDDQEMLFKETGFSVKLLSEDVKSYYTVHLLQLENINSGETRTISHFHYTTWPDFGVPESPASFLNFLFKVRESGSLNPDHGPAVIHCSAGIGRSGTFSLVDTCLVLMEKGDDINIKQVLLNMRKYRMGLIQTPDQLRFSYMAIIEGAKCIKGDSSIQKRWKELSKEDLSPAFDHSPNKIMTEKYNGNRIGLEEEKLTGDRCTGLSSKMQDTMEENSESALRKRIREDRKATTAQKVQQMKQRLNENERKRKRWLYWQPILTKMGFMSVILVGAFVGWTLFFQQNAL
Description: Dulbecco's modified Eagle medium (DMEM) without phenol red and fetal bovine serum (FBS) were purchased from Gibco (Grand Island, NY, USA). Nano-Glo® HiBiT Lytic Assay System was purchased from Promega (Medison, WI, USA). 293T. 109 (HiBiT-PTPN2) cell line was generated by ectopically expressing PTPN2 with N-terminal HiBiT fusion tag in 293T WT cell line purchased from ATCC (Manassas, VA, USA). Cell culture flasks and 384-well microplates were acquired from VWR (Radnor, PA, USA).
PTPN2 Degradation Analysis
(§1) PTPN2 degradation was determined based on quantification of luminescent signal using Nano-Glo® HiBiT Lytic Assay kit. Test compounds were added to the 384-well plate from a top concentration of 10 μM with 11 points, half log titration in duplicates. 293T. 109 cells were added into 384-well plates at a cell density of 5000 cells per well. The plates were kept at 37° C. with 5% CO2 for 24 hours. The cells treated in the absence of the test compound were the negative control and the cells without Nano-Glo® HiBiT Lytic reagent were the positive control. After 24-hour incubation, Nano-Glo® HiBiT Lytic Assay reagents were added to the cells. Luminescence was acquired on EnVision™ Multilabel Reader (PerkinElmer, Santa Clara, CA, USA).

[2] = target: T2, PTPN2 (Mus musculus, UniProt Q06180); assay: HiBiT PTPN2 degradation in B16F10.4 cells, 24 hours; type: cell-based
T2 construct: HiBiT; host or cells: B16F10.4
T2 sequence (Q06180 1-406): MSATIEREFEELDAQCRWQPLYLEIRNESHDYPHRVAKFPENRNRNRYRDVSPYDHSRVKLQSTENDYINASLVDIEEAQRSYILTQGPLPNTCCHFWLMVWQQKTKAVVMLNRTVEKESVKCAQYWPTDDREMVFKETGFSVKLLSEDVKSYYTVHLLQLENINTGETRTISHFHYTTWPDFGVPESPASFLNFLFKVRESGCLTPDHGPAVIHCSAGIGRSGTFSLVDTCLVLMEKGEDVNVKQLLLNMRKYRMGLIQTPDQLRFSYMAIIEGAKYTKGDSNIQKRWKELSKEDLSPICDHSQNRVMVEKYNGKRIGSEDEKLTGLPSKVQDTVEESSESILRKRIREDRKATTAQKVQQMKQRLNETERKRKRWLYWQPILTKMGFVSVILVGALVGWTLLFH
Experimental: as §1

| Structure (SMILES) | DC50 [1] | DC50 [2] |
| --- | --- | --- |
| C[C@@H](C(=O)Nc1ccc2c(F)c(N3CC(=O)NS3(=O)=O)c(O)cc2c1)N1CCC(c2ccc3c(c2)n(C)c(=O)n3C2CCC(=O)NC2=O)CC1 (single isomer, unassigned) [Degrader 104] | 50 to 150 nM | 50 to 150 nM |
| CCn1c(=O)n(C2CCC(=O)NC2=O)c2ccc([C@H]3CCN(CC(=O)Nc4ccc5c(F)c(N6CC(=O)NS6(=O)=O)c(O)cc5c4)C[C@@H]3F)cc21 (single isomer, unassigned) [Degrader 130] | 150 to 500 nM | 150 to 500 nM |
| Cc1nn(CC(=O)Nc2ccc3c(F)c(N4CC(=O)NS4(=O)=O)c(O)cc3c2)c(C)c1-c1ccc2c(C3CCC(=O)NC3=O)nn(C)c2c1 (stereo not shown) [Degrader 1] | < 50 nM | < 50 nM |
| Cn1c(=O)n(C2CCC(=O)NC2=O)c2ccc(C3CCN(CC4CC(C(=O)Nc5ccc6c(F)c(N7CC(=O)NS7(=O)=O)c(O)cc6c5)C4)CC3)cc21 (stereo not shown) [Degrader 6] | < 50 nM | 50 to 150 nM |
| Cn1c(=O)n(C2CCC(=O)NC2=O)c2ccc(C3CCN(CCC(C)(C)CCOc4ccc5cc(O)c(N6CC(=O)NS6(=O)=O)c(F)c5c4)CC3)cc21 (stereo not shown) [Degrader 7] | < 50 nM | 150 to 500 nM |
| Cn1c(=O)n(C2CCC(=O)NC2=O)c2ccc(N3CCC(CCC(=O)Nc4ccc5c(F)c(N6CC(=O)NS6(=O)=O)c(O)cc5c4)CC3)cc21 (stereo not shown) [Degrader 8] | 50 to 150 nM | 50 to 150 nM |
| O=C1CCC(n2c(=O)n(C3COC3)c3cc(C4CCN(CC(=O)Nc5ccc6c(F)c(N7CC(=O)NS7(=O)=O)c(O)cc6c5)CC4)ccc32)C(=O)N1 (stereo not shown) [Degrader 9] | 150 to 500 nM | 150 to 500 nM |
| Cn1c(=O)n(C2CCC(=O)NC2=O)c2ccc(C3CCN(CC(=O)N4CCC(Oc5ccc6cc(O)c(N7CC(=O)NS7(=O)=O)c(F)c6c5)CC4)CC3(F)F)cc21 (stereo not shown) [Degrader 10] | 50 to 150 nM | 150 to 500 nM |
| CCn1nc(C2CCC(=O)NC2=O)c2ccc(C3CCN(CC(=O)Nc4ccc5c(F)c(N6CC(=O)NS6(=O)=O)c(O)cc5c4)CC3(F)F)cc21 (stereo not shown) [Degrader 11] | 50 to 150 nM | 150 to 500 nM |
| CCn1nc(C2CCC(=O)NC2=O)c2ccc(C3CCN(CC(=O)N4CC(Oc5ccc6cc(O)c(N7CC(=O)NS7(=O)=O)c(F)c6c5)C4)CC3(F)F)cc21 (stereo not shown) [Degrader 12] | < 50 nM | 50 to 150 nM |
| CC(C)n1nc(C2CCC(=O)NC2=O)c2ccc(C3CCN(CC(=O)N4CC(Oc5ccc6cc(O)c(N7CC(=O)NS7(=O)=O)c(F)c6c5)C4)CC3(F)F)cc21 (stereo not shown) [Degrader 13] | 50 to 150 nM | 50 to 150 nM |
| Cn1c(=O)n(C2CCC(=O)NC2=O)c2ccc(C3CCN(CC4CC4C(=O)N4CC(Oc5ccc6cc(O)c(N7CC(=O)NS7(=O)=O)c(F)c6c5)C4)CC3)cc21 (stereo not shown) [Degrader 14] | 50 to 150 nM | 150 to 500 nM |
| Cn1c(=O)n(C2CCC(=O)NC2=O)c2ccc([C@@H]3CCN(CC(=O)N4CC(Oc5ccc6cc(O)c(N7CC(=O)NS7(=O)=O)c(F)c6c5)C4)C3)cc21 (stereo partly shown) [Degrader 16] | 150 to 500 nM | ≥ 500 nM |
| Cn1c(=O)n(C2CCC(=O)NC2=O)c2ccc(C3CCN(CC4CC4C(=O)N4CC[C@H](c5ccc6cc(O)c(N7CC(=O)NS7(=O)=O)c(F)c6c5)C4)CC3)cc21 (stereo partly shown) [Degrader 17] | 50 to 150 nM | 150 to 500 nM |
| Cn1c(=O)n(C2CCC(=O)NC2=O)c2ccc(C3CCN(CC4CC4C(=O)N4CC[C@@H](c5ccc6cc(O)c(N7CC(=O)NS7(=O)=O)c(F)c6c5)C4)CC3)cc21 (stereo partly shown) [Degrader 18] | 50 to 150 nM | 150 to 500 nM |
| Cn1c(=O)n(C2CCC(=O)NC2=O)c2ccc(N3CCC(CC(=O)Nc4ccc5c(F)c(N6CC(=O)NS6(=O)=O)c(O)cc5c4)CC3)cc21 (stereo not shown) [Degrader 19] | < 50 nM | 50 to 150 nM |
| Cn1c(=O)n([C@H]2CCC(=O)NC2=O)c2ccc(N3CCC(CC(=O)Nc4ccc5c(F)c(N6CC(=O)NS6(=O)=O)c(O)cc5c4)CC3)cc21 [Degrader 20] | 50 to 150 nM | 50 to 150 nM |
| Cn1c(=O)n([C@@H]2CCC(=O)NC2=O)c2ccc(N3CCC(CC(=O)Nc4ccc5c(F)c(N6CC(=O)NS6(=O)=O)c(O)cc5c4)CC3)cc21 [Degrader 21] | 50 to 150 nM | 50 to 150 nM |
| CCn1c(=O)n(C2CCC(=O)NC2=O)c2ccc(N3CCC(CC(=O)Nc4ccc5c(F)c(N6CC(=O)NS6(=O)=O)c(O)cc5c4)CC3)cc21 (stereo not shown) [Degrader 22] | 50 to 150 nM | 50 to 150 nM |
| Cn1nc(C2CCC(=O)NC2=O)c2ccc(C3CCN(C4CC(C(=O)Nc5ccc6c(F)c(N7CC(=O)NS7(=O)=O)c(O)cc6c5)C4)CC3)cc21 (stereo not shown) [Degrader 30] | < 50 nM | 150 to 500 nM |
| Cn1c(=O)n(C2CCC(=O)NC2=O)c2ccc(CC3CCN(C(=O)Nc4ccc5c(F)c(N6CC(=O)NS6(=O)=O)c(O)cc5c4)CC3)cc21 (stereo not shown) [Degrader 34] | ≥ 500 nM | ≥ 500 nM |
| CC(C)n1c(=O)n(C2CCC(=O)NC2=O)c2ccc(N3CCC(CC(=O)Nc4ccc5c(F)c(N6CC(=O)NS6(=O)=O)c(O)cc5c4)CC3)cc21 (stereo not shown) [Degrader 35] | ≥ 500 nM | 150 to 500 nM |

Next, values leading:

| DC50 [1] | DC50 [2] | Structure (SMILES) |
| --- | --- | --- |
| 50 to 150 nM | 150 to 500 nM | Cn1c(=O)n(C2CCC(=O)NC2=O)c2ccc([C@H]3CCN(CC(=O)Nc4ccc5c(F)c(N6CC(=O)NS6(=O)=O)c(O)cc5c4)C3)cc21 (single isomer, unassigned) [Degrader 123] |
| 150 to 500 nM | 150 to 500 nM | C[C@H]1CN(CC(=O)Nc2ccc3c(F)c(N4CC(=O)NS4(=O)=O)c(O)cc3c2)CCN1c1ccc2c(c1)n(C)c(=O)n2C1CCC(=O)NC1=O (stereo partly shown) [Degrader 23] |
| 50 to 150 nM | 50 to 150 nM | C[C@@H]1CN(CC(=O)Nc2ccc3c(F)c(N4CC(=O)NS4(=O)=O)c(O)cc3c2)CCN1c1ccc2c(c1)n(C)c(=O)n2C1CCC(=O)NC1=O (stereo partly shown) [Degrader 24] |
| < 50 nM | < 50 nM | Cn1c(=O)n(C2CCC(=O)NC2=O)c2ccc(-c3ccc(CC(=O)Nc4ccc5c(F)c(N6CC(=O)NS6(=O)=O)c(O)cc5c4)cc3)cc21 (stereo not shown) [Degrader 25] |
| 50 to 150 nM | < 50 nM | Cn1c(=O)n([C@@H]2CCC(=O)NC2=O)c2ccc(-c3ccc(CC(=O)Nc4ccc5c(F)c(N6CC(=O)NS6(=O)=O)c(O)cc5c4)cc3)cc21 [Degrader 26] |
| 50 to 150 nM | < 50 nM | Cn1c(=O)n([C@H]2CCC(=O)NC2=O)c2ccc(-c3ccc(CC(=O)Nc4ccc5c(F)c(N6CC(=O)NS6(=O)=O)c(O)cc5c4)cc3)cc21 [Degrader 27] |
| 50 to 150 nM | < 50 nM | Cc1cc(CC(=O)Nc2ccc3c(F)c(N4CC(=O)NS4(=O)=O)c(O)cc3c2)ccc1-c1ccc2c(c1)n(C)c(=O)n2C1CCC(=O)NC1=O (stereo not shown) [Degrader 28] |
| 50 to 150 nM | < 50 nM | Cn1c(=O)n(C2CCC(=O)NC2=O)c2ccc(-c3ccc4c(cnn4CC(=O)Nc4ccc5c(F)c(N6CC(=O)NS6(=O)=O)c(O)cc5c4)c3)cc21 (stereo not shown) [Degrader 29] |
| 50 to 150 nM | 50 to 150 nM | Cn1c(=O)n(C2CCC(=O)NC2=O)c2ccc(-c3ccn(CC(=O)Nc4ccc5c(F)c(N6CC(=O)NS6(=O)=O)c(O)cc5c4)c(=O)c3)cc21 (stereo not shown) [Degrader 32] |
| 50 to 150 nM | 50 to 150 nM | Cn1c(=O)n(C2CCC(=O)NC2=O)c2ccc(-c3ccc(CC(=O)Nc4ccc5c(F)c(N6CC(=O)NS6(=O)=O)c(O)cc5c4)c(F)c3)cc21 (stereo not shown) [Degrader 33] |
